From ChEMBL document CHEMBL4196087 (Eur J Med Chem, 2018)

Legend:
NCI-H226 [1] = experiment: Antiproliferative activity against human NCI-H226 cells after 48 hrs by MTT assay; type: functional, cell-based; conditions: NCI-H226, 48 h
HL-60 = experiment: Antiproliferative activity against human HL60 cells after 48 hrs by MTT assay; type: functional, cell-based; conditions: HL-60, 48 h
MDA-MB-468 [2] = experiment: Antiproliferative activity against human MDA-MB-468 cells after 48 hrs by MTT assay; type: functional, cell-based; conditions: MDA-MB-468, 48 h
UO-31 [3] = experiment: Induction of apoptosis in human UO31 cells assessed as caspase-3 activation by measuring active caspase-3 level at 6.44 uM by […] (reference value: 66 pg/ml); type: functional
IGROV-1 [4] = experiment: Antiproliferative activity against human IGROV1 cells after 48 hrs by MTT assay; type: functional, cell-based; conditions: IGROV-1, 48 h
UO-31 [5] = experiment: Antiproliferative activity against human UO31 cells after 48 hrs by MTT assay; type: functional, cell-based; conditions: UO-31, 48 h
UO-31 [6] = experiment: Cell cycle arrest in human UO31 cells assessed as accumulation at pre-G1 phase at 0.72 uM after 24 hrs by propidium iodide staining based flow cytometry relative to control; type: functional
Pseudomonas aeruginosa = experiment: Antibacterial activity against Pseudomonas aeruginosa at 37 degC measured after 24 hrs by agar disc diffusion method; type: functional
UO-31 [7] = experiment: Cell cycle arrest in human UO31 cells assessed as accumulation at S phase at 0.72 uM after 24 hrs by propidium iodide staining based flow cytometry (reference value: 24.47%); type: functional
DNA topoisomerase 2-beta [8] = target: T1, DNA topoisomerase 2-beta (Homo sapiens, UniProt Q02880); experiment: Potency index, ratio of amsacrine IC50 to compound IC50 for inhibition of human topoisomerase-2B
T1 sequence (Q02880 whole entry): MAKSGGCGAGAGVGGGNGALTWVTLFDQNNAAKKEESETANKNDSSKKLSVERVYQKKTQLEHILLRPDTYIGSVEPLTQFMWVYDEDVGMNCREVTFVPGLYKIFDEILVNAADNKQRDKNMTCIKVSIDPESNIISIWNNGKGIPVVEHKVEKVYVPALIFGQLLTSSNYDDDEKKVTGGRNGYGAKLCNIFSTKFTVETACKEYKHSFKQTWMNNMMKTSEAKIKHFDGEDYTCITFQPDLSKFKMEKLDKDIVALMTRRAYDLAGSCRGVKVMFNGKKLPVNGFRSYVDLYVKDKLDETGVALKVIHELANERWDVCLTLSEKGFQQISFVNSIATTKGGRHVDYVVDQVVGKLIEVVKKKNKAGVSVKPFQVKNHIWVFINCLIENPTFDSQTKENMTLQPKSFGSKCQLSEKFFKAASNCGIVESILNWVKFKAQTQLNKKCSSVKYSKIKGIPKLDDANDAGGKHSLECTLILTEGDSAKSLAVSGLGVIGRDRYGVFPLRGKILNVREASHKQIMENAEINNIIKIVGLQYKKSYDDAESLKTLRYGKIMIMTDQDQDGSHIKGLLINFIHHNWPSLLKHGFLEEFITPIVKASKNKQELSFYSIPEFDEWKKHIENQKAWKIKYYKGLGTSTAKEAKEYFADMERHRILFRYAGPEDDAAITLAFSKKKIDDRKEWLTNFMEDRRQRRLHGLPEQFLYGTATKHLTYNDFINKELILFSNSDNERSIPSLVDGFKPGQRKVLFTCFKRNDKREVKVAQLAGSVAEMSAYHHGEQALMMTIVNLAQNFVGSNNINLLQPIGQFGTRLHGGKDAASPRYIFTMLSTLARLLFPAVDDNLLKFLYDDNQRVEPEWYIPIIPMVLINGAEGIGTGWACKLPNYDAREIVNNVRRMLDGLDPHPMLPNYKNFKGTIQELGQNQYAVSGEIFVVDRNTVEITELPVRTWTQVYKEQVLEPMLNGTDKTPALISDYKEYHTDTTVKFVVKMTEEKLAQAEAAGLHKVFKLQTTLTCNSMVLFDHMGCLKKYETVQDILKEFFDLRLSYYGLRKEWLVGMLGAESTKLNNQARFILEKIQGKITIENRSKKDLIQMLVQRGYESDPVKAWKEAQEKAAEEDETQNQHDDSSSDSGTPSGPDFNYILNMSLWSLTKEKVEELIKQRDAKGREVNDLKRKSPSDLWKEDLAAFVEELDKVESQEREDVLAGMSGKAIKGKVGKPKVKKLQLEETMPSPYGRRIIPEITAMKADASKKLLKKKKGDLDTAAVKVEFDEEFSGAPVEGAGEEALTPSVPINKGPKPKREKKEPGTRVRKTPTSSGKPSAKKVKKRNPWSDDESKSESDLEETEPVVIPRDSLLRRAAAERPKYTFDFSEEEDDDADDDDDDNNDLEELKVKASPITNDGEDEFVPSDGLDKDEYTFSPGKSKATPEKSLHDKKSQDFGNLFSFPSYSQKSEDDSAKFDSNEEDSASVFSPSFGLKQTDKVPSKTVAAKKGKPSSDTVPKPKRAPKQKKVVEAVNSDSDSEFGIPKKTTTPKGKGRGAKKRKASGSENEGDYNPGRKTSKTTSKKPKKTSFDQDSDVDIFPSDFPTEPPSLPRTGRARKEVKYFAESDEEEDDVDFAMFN

UO-31 [9] = experiment: Induction of apoptosis in human UO31 cells assessed as late apoptotic cells at 0.72 uM after 24 hrs by Annexin V-FITC/propidium iodide staining based flow cytometry (reference value: 0.22%); type: functional
UO-31 [10] = experiment: Antiproliferative activity against human UO31 cells after 48 hrs by SRB assay; type: functional; conditions: UO-31, 48 h
UO-31 [11] = experiment: Induction of apoptosis in human UO31 cells assessed as caspase-3 activation by measuring active caspase-3 level at 0.72 uM by […] (reference value: 66 pg/ml); type: functional
MDA-MB-231 = experiment: Growth inhibition of human MDA-MB-231 cells at 10^-5 M incubated for 48 hrs by sulforhodamine B assay relative to control; type: functional; conditions: MDA-MB-231, 48 h, read-out: GI
SNB-75 = experiment: Growth inhibition of human SNB75 cells at 10^-5 M incubated for 48 hrs by sulforhodamine B assay relative to control; type: functional; conditions: SNB-75, 48 h, read-out: GI
MDA-MB-468 [12] = experiment: Growth inhibition of human MDA-MB-468 cells at 10^-5 M incubated for 48 hrs by sulforhodamine B assay relative to control; type: functional; conditions: MDA-MB-468, 48 h, read-out: GI
DNA topoisomerase 2-beta [13] = target: T1, DNA topoisomerase 2-beta; experiment: Inhibition of human topoisomerase-2B after 2 hrs by ELISA
UO-31 [14] = experiment: Cell cycle arrest in human UO31 cells assessed as accumulation at G2/M phase at 0.72 uM after 24 hrs by propidium iodide staining based flow cytometry relative to control; type: functional
T47D = experiment: Growth inhibition of human T47D cells at 10^-5 M incubated for 48 hrs by sulforhodamine B assay relative to control; type: functional; conditions: read-out: GI
Escherichia coli = experiment: Antibacterial activity against Escherichia coli at 37 degC measured after 24 hrs by agar disc diffusion method; type: functional
HOP-92 = experiment: Growth inhibition of human HOP92 cells at 10^-5 M incubated for 48 hrs by sulforhodamine B assay relative to control; type: functional; conditions: HOP-92, 48 h, read-out: GI
CCRF-CEM = experiment: Growth inhibition of human CCRF-CEM cells at 10^-5 M incubated for 48 hrs by sulforhodamine B assay relative to control; type: functional; conditions: read-out: GI
PC-3 = experiment: Growth inhibition of human PC3 cells at 10^-5 M incubated for 48 hrs by sulforhodamine B assay relative to control; type: functional; conditions: PC-3, 48 h, read-out: GI
DNA topoisomerase 2-beta [15] = target: T1, DNA topoisomerase 2-beta; experiment: Potency index, ratio of doxorubicin IC50 to compound IC50 for inhibition of human topoisomerase-2B
IGROV-1 [16] = experiment: Antiproliferative activity against human IGROV1 cells after 48 hrs by SRB assay; type: functional; conditions: IGROV-1, 48 h, read-out: LC50 (the source's name)
Staphylococcus aureus = experiment: Antibacterial activity against Staphylococcus aureus at 37 degC measured after 24 hrs by agar disc diffusion method; type: functional
HL-60(TB) = experiment: Growth inhibition of human HL-60(TB) cells at 10^-5 M incubated for 48 hrs by sulforhodamine B assay relative to control; type: functional; conditions: HL-60, 48 h, read-out: GI
UO-31 [17] = experiment: Induction of apoptosis in human UO31 cells assessed as necrotic cells at 0.72 uM after 24 hrs by Annexin V-FITC/propidium iodide staining based flow cytometry (reference value: 0.08%); type: functional
A498 = experiment: Growth inhibition of human A498 cells at 10^-5 M incubated for 48 hrs by sulforhodamine B assay relative to control; type: functional; conditions: A498, 48 h, read-out: GI
IGROV-1 [18] = experiment: Growth inhibition of human IGROV1 cells at 10^-5 M incubated for 48 hrs by sulforhodamine B assay relative to control; type: functional; conditions: IGROV-1, 48 h, read-out: GI
UO-31 [19] = experiment: Cell cycle arrest in human UO31 cells assessed as accumulation at G2 phase at 0.72 uM after 24 hrs by propidium iodide staining based flow cytometry (reference value: 5.49%); type: functional
NCI-H226 [20] = experiment: Antiproliferative activity against human NCI-H226 cells after 48 hrs by SRB assay; type: functional; conditions: NCI-H226, 48 h, read-out: LC50 (the source's name)
LOX IMVI = experiment: Growth inhibition of human LOXIMVI cells at 10^-5 M incubated for 48 hrs by sulforhodamine B assay relative to control; type: functional; conditions: read-out: GI
UO-31 [21] = experiment: Cell cycle arrest in human UO31 cells assessed as accumulation at G1 phase at 0.72 uM after 24 hrs by propidium iodide staining based flow cytometry (reference value: 69.55%); type: functional
UO-31 [22] = experiment: Cell cycle arrest in human UO31 cells assessed as apoptotic cells at 0.72 uM after 24 hrs by propidium iodide staining based flow cytometry (reference value: 0.49%); type: functional
SK-MEL-5 = experiment: Growth inhibition of human SK-MEL-5 cells at 10^-5 M incubated for 48 hrs by sulforhodamine B assay relative to control; type: functional; conditions: SK-MEL-5, 48 h, read-out: GI
RPMI-8226 = experiment: Growth inhibition of human RPMI8226 cells at 10^-5 M incubated for 48 hrs by sulforhodamine B assay relative to control; type: functional; conditions: RPMI-8226, 48 h, read-out: GI
MOLT-4 = experiment: Growth inhibition of human MOLT4 cells at 10^-5 M incubated for 48 hrs by sulforhodamine B assay relative to control; type: functional; conditions: MOLT-4, 48 h, read-out: GI
HOP-62 = experiment: Growth inhibition of human HOP62 cells at 10^-5 M incubated for 48 hrs by sulforhodamine B assay relative to control; type: functional; conditions: HOP-62, 48 h, read-out: GI
NCI-H226 [23] = experiment: Potency index, ratio of doxorubicin IC50 to compound IC50 for antiproliferative activity against human NCI-H226 cells; type: functional
K562 = experiment: Growth inhibition of human K562 cells at 10^-5 M incubated for 48 hrs by sulforhodamine B assay relative to control; type: functional; conditions: K562, 48 h, read-out: GI
MCF7 = experiment: Growth inhibition of human MCF7 cells at 10^-5 M incubated for 48 hrs by sulforhodamine B assay relative to control; type: functional; conditions: MCF7, 48 h, read-out: GI
UO-31 [24] = experiment: Growth inhibition of human UO31 cells at 10^-5 M incubated for 48 hrs by sulforhodamine B assay relative to control; type: functional; conditions: UO-31, 48 h, read-out: GI
IGROV-1 [25] = experiment: Potency index, ratio of doxorubicin IC50 to compound IC50 for antiproliferative activity against human IGROV1 cells; type: functional
UO-31 [26] = experiment: Potency index, ratio of doxorubicin IC50 to compound IC50 for antiproliferative activity against human UO31 cells; type: functional
SF-539 = experiment: Growth inhibition of human SF539 cells at 10^-5 M incubated for 48 hrs by sulforhodamine B assay relative to control; type: functional; conditions: SF-539, 48 h, read-out: GI
NCI-H226 [27] = experiment: Growth inhibition of human NCI-H226 cells at 10^-5 M incubated for 48 hrs by sulforhodamine B assay relative to control; type: functional; conditions: NCI-H226, 48 h, read-out: GI
UO-31 [28] = experiment: Induction of apoptosis in human UO31 cells assessed as early apoptotic cells at 0.72 uM after 24 hrs by Annexin V-FITC/propidium iodide staining based flow cytometry (reference value: 0.19%); type: functional
UO-31 [29] = experiment: Induction of apoptosis in human UO31 cells assessed as live cells at 0.72 uM after 24 hrs by Annexin V-FITC/propidium iodide staining based low cytometry (reference value: 97.84%); type: functional
Bacillus subtilis = experiment: Antibacterial activity against Bacillus subtilis at 37 degC measured after 24 hrs by agar disc diffusion method; type: functional

COc1cccc2c1C(=O)c1c(O)c3c(c(O)c1C2=O)C[C@@](O)(C(=O)CO)C[C@@H]3O[C@H]1C[C@H](N)[C@H](O)[C@H](C)O1 [DOXORUBICIN]
IC50 (NCI-H226 [1]): 5.07 µM
IC50 (HL-60): 8.91 µM
IC50 (MDA-MB-468 [2]): 2.81 µM
Activity (UO-31 [3]): 375.6 pg/mL
IC50 (IGROV-1 [4]): 4.36 µM
IC50 (UO-31 [5]): 6.44 µM

O=C(CN1CCN(c2cc3c(cc2F)c(=O)c(C(=O)O)cn3C2CC2)CC1)N/N=C/c1cc2ccccc2[nH]1
fold change (FC) (UO-31 [6]): 8.8
diameter of the inhibition zone (DIZ) (Pseudomonas aeruginosa): 27 mm
Activity (UO-31 [7]): 21.69%
Ratio IC50 (DNA topoisomerase 2-beta [8]): 3
Activity (UO-31 [9]): 1.88%
LC50 (UO-31 [10]): 15.1 µM
Activity (UO-31 [11]): 293.6 pg/mL
inhibition of growth at 10 µM (MDA-MB-231): 28.1%
inhibition of growth at 10 µM (SNB-75): < 20%
inhibition of growth at 10 µM (MDA-MB-468 [12]): < 20%
IC50 (DNA topoisomerase 2-beta [13]): 0.86 µM
fold change (FC) (UO-31 [14]): 2.06
inhibition of growth at 10 µM (T47D): 25.5%
diameter of the inhibition zone (DIZ) (Escherichia coli): 25 mm
inhibition of growth at 10 µM (HOP-92): 29.8%
IC50 (NCI-H226 [1]): 1.02 µM
inhibition of growth at 10 µM (CCRF-CEM): < 20%
inhibition of growth at 10 µM (PC-3): 20.3%
Ratio IC50 (DNA topoisomerase 2-beta [15]): 4
CC50 (IGROV-1 [16]): 18.8 µM
diameter of the inhibition zone (DIZ) (Staphylococcus aureus): 25 mm
inhibition of growth at 10 µM (HL-60(TB)): < 20%
Activity (UO-31 [17]): 0.33%
inhibition of growth at 10 µM (A498): < 20%
inhibition of growth at 10 µM (IGROV-1 [18]): 43.5%
Activity (UO-31 [19]): 11.32%
CC50 (NCI-H226 [20]): 15.4 µM
inhibition of growth at 10 µM (LOX IMVI): 36.6%
Activity (UO-31 [21]): 62.64%
Activity (UO-31 [22]): 4.35%
inhibition of growth at 10 µM (SK-MEL-5): < 20%
inhibition of growth at 10 µM (RPMI-8226): < 20%
IC50 (IGROV-1 [4]): 0.75 µM
inhibition of growth at 10 µM (MOLT-4): < 20%
inhibition of growth at 10 µM (HOP-62): 29%
Ratio IC50 (NCI-H226 [23]): 4.9
inhibition of growth at 10 µM (K562): < 20%
inhibition of growth at 10 µM (MCF7): < 20%
inhibition of growth at 10 µM (UO-31 [24]): 34.1%
Ratio IC50 (IGROV-1 [25]): 5.8
Ratio IC50 (UO-31 [26]): 1.5 - 9
inhibition of growth at 10 µM (SF-539): < 20%
inhibition of growth at 10 µM (NCI-H226 [27]): 34.4%
Activity (UO-31 [28]): 2.14%
IC50 (UO-31 [5]): 0.72 µM
Activity (UO-31 [29]): 93.84%
diameter of the inhibition zone (DIZ) (Bacillus subtilis): 27 mm
